Test system: 817829-284-R-J1-PDC complex spheroids, viability
Test: Anticancer human tumor 817829-284-R-J1-PDC patient-derived colon adenocarcinoma cell line growth inhibition [CLK]
Settings: for IC50: curve of first compound; for viability, T/C: stronger effect = lower value
From the text: A high-throughput screen of multi-cell type tumor spheroids was designed to identify active combinations of […] and targeted small molecules. Complex spheroids include a stromal component modeled by human endothelial cells (HUVEC) and fibroblasts modeled by human mesenchymal stem cells (MSCs). The concentration ranges selected for each drug and investigational agent were based upon clinically achievable concentrations if the clinical Cmax of the agent was known.
Compounds. The drugs and investigational agents: cirtuvivint (SM08502; NSC835563), CC-671 (NSC850746), vemurafenib (NSC761431), tapotoclax (NSC804041), sotorasib (NSC818433), adagrasib (NSC831453), MRTX-1133 (NSC836407), BAY2416964 (NSC825713), copanlisib (NSC816437), inavolisib (NSC800729), abemaciclib (NSC768073), osimertinib (NSC779217), entinostat (NSC756642), eltanexor (KPT-8602, NSC794443), venetoclax (NSC766270), ceralasertib (NSC777638), bortezomib (NSC756655), olaparib (NSC753686), talazoparib (NSC767125), alisertib (NSC759677), peposertib (NSC802822), gemcitabine (NSC613327), 5-fluorouracil (NSC19893), SN-38 (NSC673596), oxaliplatin (NSC266046), paclitaxel (NSC125973), and doxorubicin (NSC123127), were obtained from the National Cancer Institute (NCI) Developmental Therapeutics Program Chemical Repository. The FDA-approved anticancer drug set is available from the Developmental Therapeutics Program at https://dtp.cancer.gov/organization/dscb/obtaining/available plates.htm. […] The stock solutions were prepared in dimethyl sulfoxide (DMSO, Sigma-Aldrich, St. Louis, MO, cat. D2650), except for the platinum complexes which were prepared in saline (Quality Biological, Gaithersburg, MD, cat. 114-055-101), at 800-fold the tested concentration and stored at -70 degrees C prior to their use. All drugs and investigational agents were tested over a range starting from a high concentration at or near the clinical Cmax and decreasing in half-log increments. If the clinical Cmax for an agent had not been determined, the highest concentration tested was 10 microM.
Cell Culture. All cells were maintained in an incubator at 37 degrees C and 5% CO2 with 95% humidity. The PDC lines were cultured according to standard operating procedures established by the NCI PDMR. Briefly, all PDCs were thawed and cultured in Matrigel-coated flasks prepared with a working solution of 1X Ham's F-12 nutrient mix, without supplementation (Invitrogen, Waltham, MA, cat. 11765054), 100 U/mL penicillin-streptomycin (Invitrogen, cat. 15140122), and 2.5% Matrigel (Corning Inc., Corning, NY, cat. 354248) for the first three passages. The 947758-054-R-J2-PDC line was cultured in 6B/Colon 1A media, which includes advanced DMEM/F-12 (Thermo Fisher Scientific, cat. 12634028), 10 mM HEPES (Thermo Fisher Scientific, cat. 15630080), 1X GlutaMAX supplement (Thermo Fisher Scientific, cat. 35050061), 0.1 mg/mL primocin (InvivoGen, cat. ant-pm-2), 10% defined fetal bovine serum, heat inactivated (HyClone Laboratories Inc., cat. SH30070.03HI), 1.25 mM N-Acetyl-L-cysteine (Sigma-Aldrich, cat. A9165), 10 mM nicotinamide (Sigma-Aldrich, cat. N0636), 1X B-27 supplement (Thermo Fisher Scientific, cat. 17504044), 1X N-2 supplement (Thermo Fisher Scientific, cat. 17502048), and 10 microM Y-27632 dihydrochloride (Tocris Bioscience, cat. 1254). The 876862-298-R-J1-PDC was cultured in 6E media, which includes all 6B/Colon 1A media components plus 50% L-WRN conditioned media (ATCC, cat. CRL-3276), 50 ng/mL recombinant human EGF recombinant protein (hEGF; Thermo Fisher Scientific, cat. PHG0311), 10 ng/mL recombinant human fibroblast growth factor 10 (hGFG-10; PeproTech, cat. 100-26), 1 ng/mL recombinant human fibroblast growth factor 2 (hFGF-2; PeproTech, cat. 100-18B), and 1 µM prostaglandin E2 (PGE2; Tocris, cat. 2296). The 227483-062-R1-J1-PDC line was cultured in Panc media, containing all 6E components except hFGF-2, with the addition of 500 nM SB-431542 (Selleckchem, cat. S1067) and 10 nM gastrin (Tocris, cat. 3006). […]

[1] = second compound 0.0316 µM, first compound 0.0316 µM
[2] = second compound 0.0316 µM, first compound 0.1 µM
[3] = second compound 0.0316 µM, first compound 0.316 µM
[4] = second compound 0.0316 µM, first compound 1 µM
[5] = second compound 0.0316 µM, first compound 3.16 µM
[6] = second compound 0.0316 µM, first compound 10 µM
[7] = second compound 0.1 µM, first compound 0.0316 µM
[8] = second compound 0.1 µM, first compound 0.1 µM
[9] = second compound 0.1 µM, first compound 0.316 µM
[10] = second compound 0.1 µM, first compound 1 µM
[11] = second compound 0.1 µM, first compound 3.16 µM
[12] = second compound 0.1 µM, first compound 10 µM
[13] = second compound 0.316 µM, first compound 0.0316 µM
[14] = second compound 0.316 µM, first compound 0.1 µM
[15] = second compound 0.316 µM, first compound 0.316 µM
[16] = second compound 0.316 µM, first compound 1 µM
[17] = second compound 0.316 µM, first compound 3.16 µM
[18] = second compound 0.316 µM, first compound 10 µM
[19] = second compound 1 µM, first compound 0.0316 µM
[20] = second compound 1 µM, first compound 0.1 µM
[21] = second compound 1 µM, first compound 0.316 µM
[22] = second compound 1 µM, first compound 1 µM
[23] = second compound 1 µM, first compound 3.16 µM
[24] = second compound 1 µM, first compound 10 µM
[25] = second compound 3.16 µM, first compound 0.0316 µM
[26] = second compound 3.16 µM, first compound 0.1 µM
[27] = second compound 3.16 µM, first compound 0.316 µM
[28] = second compound 3.16 µM, first compound 1 µM
[29] = second compound 3.16 µM, first compound 3.16 µM
[30] = second compound 3.16 µM, first compound 10 µM
[31] = second compound 10 µM, first compound 0.0316 µM
[32] = second compound 10 µM, first compound 0.1 µM
[33] = second compound 10 µM, first compound 0.316 µM
[34] = second compound 10 µM, first compound 1 µM
[35] = second compound 10 µM, first compound 3.16 µM
[36] = second compound 10 µM, first compound 10 µM
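Further: spheroids exposed to the agents for seven days before readout.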

Structure (SMILES): COC1C=CCC(C)C(C)S(=O)(=O)NC(=O)c2ccc3c(c2)N(CC2CCC21)CC1(CCCc2cc(Cl)ccc21)CO3 (centres undefined) + CNC(=O)c1ccc(Nc2nc(OC3CCCC3)c3c(-c4ccc5nc(C)oc5c4)c[nH]c3n2)c(OC)c1
- IC50 (second compound 0.0316 µM): < 31.6 nM
- IC50 (second compound 0.1 µM): < 31.6 nM
- IC50 (second compound 0.316 µM): < 31.6 nM
- IC50 (second compound 1 µM): < 31.6 nM
- IC50 (second compound 3.16 µM): < 31.6 nM
- IC50 (second compound 10 µM): < 31.6 nM
- viability, T/C [1]: 31.3%
- viability, T/C [2]: 51.1%
- viability, T/C [3]: 31.1%
- viability, T/C [4]: 47.8%
- viability, T/C [5]: 45.3%
- viability, T/C [6]: 4.06%
- viability, T/C [7]: 27.3%
- viability, T/C [8]: 26.5%
- viability, T/C [9]: 18.7%
- viability, T/C [10]: 16.1%
- viability, T/C [11]: 7.61%
- viability, T/C [12]: 4.67%
- viability, T/C [13]: 21.2%
- viability, T/C [14]: 31.2%
- viability, T/C [15]: 22.6%
- viability, T/C [16]: 12.6%
- viability, T/C [17]: 6.09%
- viability, T/C [18]: 4.97%
- viability, T/C [19]: 19.7%
- viability, T/C [20]: 23.3%
- viability, T/C [21]: 19.9%
- viability, T/C [22]: 17.6%
- viability, T/C [23]: 6.44%
- viability, T/C [24]: 16%
- viability, T/C [25]: 19.7%
- viability, T/C [26]: 22.5%
- viability, T/C [27]: 21.7%
- viability, T/C [28]: 17.4%
- viability, T/C [29]: 7.34%
- viability, T/C [30]: 4.74%
- viability, T/C [31]: 27.4%
- viability, T/C [32]: 23.8%
- viability, T/C [33]: 19.8%
- viability, T/C [34]: 13.2%
- viability, T/C [35]: 7.33%
- viability, T/C [36]: 3.62%

Structure (SMILES): C#Cc1c(F)ccc2cc(O)cc(-c3ncc4c(N5CC6CCC(C5)N6)nc(OCC56CCCN5CC(F)C6)nc4c3F)c12 (centres undefined) + CN1CCN(c2cc(C(=O)Nc3cc4cc(-c5cnn(C)c5)ccc4cn3)ccn2)CC1
- IC50 (second compound 0.0316 µM): 4960 nM
- IC50 (second compound 0.1 µM): < 31.6 nM
- IC50 (second compound 0.316 µM): < 31.6 nM
- IC50 (second compound 1 µM): < 31.6 nM
- IC50 (second compound 3.16 µM): < 31.6 nM
- IC50 (second compound 10 µM): < 31.6 nM
- viability, T/C [1]: 83.1%
- viability, T/C [2]: 61%
- viability, T/C [3]: 66.3%
- viability, T/C [4]: 68.5%
- viability, T/C [5]: 57.3%
- viability, T/C [6]: 40.5%
- viability, T/C [7]: 24.2%
- viability, T/C [8]: 19.4%
- viability, T/C [9]: 19.8%
- viability, T/C [10]: 17.4%
- viability, T/C [11]: 15.2%
- viability, T/C [12]: 11.8%
- viability, T/C [13]: 2.71%
- viability, T/C [14]: 2.39%
- viability, T/C [15]: 2.14%
- viability, T/C [16]: 2.39%
- viability, T/C [17]: 2.31%
- viability, T/C [18]: 1.5%
- viability, T/C [19]: 0.1%
- viability, T/C [20]: 0.14%
- viability, T/C [21]: 0.17%
- viability, T/C [22]: 0.12%
- viability, T/C [23]: 0.09%
- viability, T/C [24]: 0.09%
- viability, T/C [25]: 0.15%
- viability, T/C [26]: 0.13%
- viability, T/C [27]: 0.15%
- viability, T/C [28]: 0.16%
- viability, T/C [29]: 0.13%
- viability, T/C [30]: 0.07%
- viability, T/C [31]: 0.1%
- viability, T/C [32]: 0.11%
- viability, T/C [33]: 0.11%
- viability, T/C [34]: 0.16%
- viability, T/C [35]: 0.17%
- viability, T/C [36]: 0.13%
